Experiment in all cases: NCI anticancer screen, dose series, 48 h
In experiment [1] the test system is LOX IMVI melanoma.
For experiment [2], the system named is RXF 393 renal.
The subject of experiment [3] is CCRF-CEM leukemia.
Experiment [4] has as its system HCT-116 colon.
For experiment [5], the system named is SNB-75 CNS.
Experiment [6] has as its system OVCAR-4 ovarian.
For experiment [7], the system named is SNB-19 CNS.
Experiment [8] has as its system NCI-H460 lung.
Experiment [9] has as its system OVCAR-8 ovarian.
Experiment [10] deals with NCI-H226 lung.

Several values for one entry are separate records, joined by “and”; a condition that tells them apart may be missing. Identical values can stand only once.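 All cell lines were grown in 96-well plates and treated with compound for 48 hours. The concentration for 50% growth inhibition is given as GI50. At the TGI there is no net growth.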

For `COc1cc(Cn2c(-c3ccccc3)cc3c2-c2oncc2CC3)cc(OC)c1`, the GI50 is 0.757 µM in experiment [1]; 0.296 µM in experiment [2]; 0.337 µM in experiment [3]; 0.354 µM in experiment [4]; 0.201 µM in experiment [5]; 0.664 µM in experiment [6]. In addition, the GI50 in [7] is 0.562 µM; in experiment [8] it was 0.333 µM; in [9], 0.592 µM; in experiment [10], 0.93 µM. Further, the TGI in experiment [1] was greater than 100 µM; in experiment [2], greater than 100 µM; in experiment [3] it was greater than 100 µM; in experiment [4] it was greater than 46.8 µM; in experiment [5] it was 20.1 µM; in [6] it was greater than 100 µM. Further, the TGI in experiment [7] is greater than 100 µM; in experiment [8], 5.32 µM; in [9], greater than 100 µM; in [10], greater than 100 µM.

For the compound `NS(=O)(=O)c1ccc(NC(=O)c2cccc(NC3=C(Cl)C(=O)N(Cc4ccccc4)C3=O)c2)cc1`, the GI50 in experiment [1] was 3.54 µM; in [2], 10.6 µM; in experiment [3] it was 2.82 µM; in experiment [4], 13.9 µM; in experiment [5], 19.4 µM; in [6], 35.7 µM. Further, the GI50 in experiment [7] is 27.1 µM; in experiment [8], 10.5 µM; in [9], 12.3 µM; in [10] it was 8.33 µM. Moreover, the TGI in [1] is 16.1 µM; in [2] it was 33.9 µM; in experiment [3], 8.17 µM; in [4], 43.4 µM; in [5], 45.3 µM; in experiment [6], greater than 100 µM. Also, the TGI was greater than 100 µM in experiment [7], 25.6 µM in experiment [8], 41.8 µM in [9] and 46.2 µM in [10].

Regarding H-QIYKKYRTWYRKAWKVLGKV-NH2, the GI50 is 23.7 µM in experiment [1]; 4.55 µM in experiment [2]; 4.14 µM in experiment [3]; 10.8 µM in [4]; 6.06 µM in experiment [5]; 9.03 µM in experiment [6]. Also, the GI50 was 17.5 µM in experiment [7], 3.24 µM in experiment [8], 3.8 µM in experiment [9] and 12.4 µM in experiment [10]. Besides, the TGI in experiment [1] was greater than 100 µM; in [2], 27.4 µM; in experiment [3], greater than 100 µM; in experiment [4], 77.1 µM; in [5], 22.5 µM; in experiment [6], 50.5 µM. Further, the TGI is 68.6 µM in experiment [7], 12.4 µM in [8], greater than 100 µM in experiment [9] and 58.7 µM in [10].

Turning to `O=C(NOCCO)c1cc(CN2OCCCC2=O)c(F)c(F)c1Nc1ccc(I)cc1F`, the GI50 in experiment [1] is 0.112 µM and 0.164 µM; in experiment [2] it was 0.521 µM and 0.336 µM; in [3] it was 39.5 µM and > 10 µM; in [4], 0.0171 µM and 0.0207 µM; in experiment [5], 16.4 µM and > 3.83 µM; in [6], 6.13 µM and > 7.82 µM. Also, the GI50 in experiment [7] was 3.68 µM and 1.64 µM; in experiment [8] it was 12.9 µM and > 10 µM; in experiment [9], 12.6 µM and > 7.77 µM; in experiment [10], 1.89 µM and 9.97 µM. Further, the TGI in [1] was 12.2 µM and > 10 µM; in [2], 25.9 µM and > 10 µM; in experiment [3], greater than 100 µM; in experiment [4], 28.6 µM and > 10 µM; in experiment [5], greater than 100 µM; in [6], greater than 90.4 µM. In addition, the TGI in [7], in experiment [8], in experiment [9] and in experiment [10] was greater than 100 µM throughout.

As to `O=c1[nH]cc(C(F)(C(F)(F)F)C(F)(F)F)c(=O)[nH]1`, the TGI in experiment [1], in experiment [2], in experiment [3], in experiment [4], in [5] and in experiment [6] was greater than 100 µM each time. The TGI in experiment [7], in [8], in [9] and in experiment [10] was greater than 100 µM throughout.

Turning to `CC(C)[Si](OCC1CC(C#N)OC(C)(C)O1)(C(C)C)C(C)C` (stereo not given), the TGI in experiment [1] is 33.7 µM; in [2], 31.9 µM; in experiment [3], 39.1 µM; in [4] it was 30.1 µM; in experiment [5] it was greater than 100 µM; in experiment [6], greater than 100 µM. Further, the TGI in [7] is 50.8 µM; in experiment [8], 30.8 µM; in [9] it was 48 µM; in experiment [10], 35 µM.

(Values after PubChem BioAssay (NCI).)
